Results published in the NIST ThermoML archive (doi:10.1021/je060271a).

Settings: 323.15 K, Liquid, Vibrating tube method

CCCCCC(=O)OCC(COC(=O)CCCCC)(COC(=O)CCCCC)COC(=O)CCCCC [pentaerythritol tetrahexanoate]
Settings	mass density [kg/m3]
616.8 kPa	973.1
618.6 kPa	973.1
620.6 kPa	973.1
623.1 kPa	973.3
625.3 kPa	973.2
627.3 kPa	973.1
629.2 kPa	973.2
631.2 kPa	973.1
633 kPa	973.1
634.7 kPa	973.1
637.3 kPa	973.1
639.4 kPa	973.1
641.7 kPa	973
643.9 kPa	973
659.4 kPa	973.1
662 kPa	973.2
664.3 kPa	973.2
666.7 kPa	973.1
668.8 kPa	973.2
671.2 kPa	973.2
674 kPa	973.1
675.9 kPa	973.1
678.5 kPa	973.1
681.8 kPa	973.2
684.1 kPa	973.2
699.5 kPa	973.1
702.1 kPa	973.1
704.4 kPa	973.1
707.2 kPa	973.2
709.1 kPa	973.2
712 kPa	973.1
741.4 kPa	973.1
744 kPa	973.3
746.6 kPa	973.1
749.6 kPa	973.2
752.5 kPa	973.1
755.1 kPa	973.3
757.9 kPa	973.2
760.3 kPa	973.2
765.9 kPa	973.2
768.5 kPa	973.2
772.1 kPa	973.2
774.9 kPa	973.1
777.5 kPa	973.3
780 kPa	973.2
783.1 kPa	973.2
785.3 kPa	973.1
788.3 kPa	973.3
791.4 kPa	973.2
794.4 kPa	973.2
796 kPa	973.2
798.4 kPa	973.3
815.2 kPa	973.3
817.7 kPa	973.3
821 kPa	973.3
824.1 kPa	973.4
827.1 kPa	973.3
830.2 kPa	973.2
833.5 kPa	973.3
836.8 kPa	973.2
839.5 kPa	973.3
842.8 kPa	973.2
845.5 kPa	973.2
849.1 kPa	973.3
851.9 kPa	973.2
855.5 kPa	973.3
871.5 kPa	973.2
875.2 kPa	973.2
877.8 kPa	973.2
880.9 kPa	973.3
884.5 kPa	973.3
887.3 kPa	973.2
890.8 kPa	973.2
894.6 kPa	973.2
897.6 kPa	973.2
900.3 kPa	973.2
904 kPa	973.3
906.8 kPa	973.3
910.8 kPa	973.3
913.5 kPa	973.3
920.1 kPa	973.2
926.9 kPa	973.3
930.6 kPa	973.3
933.3 kPa	973.3
936.1 kPa	973.2
940 kPa	973.3
942.9 kPa	973.4
947.1 kPa	973.3
950.7 kPa	973.3
953.5 kPa	973.3
957 kPa	973.4
960.8 kPa	973.3
963.6 kPa	973.4
968.1 kPa	973.2
971.9 kPa	973.2
975.6 kPa	973.4
978.9 kPa	973.4
983 kPa	973.3
987 kPa	973.3
991 kPa	973.4
995 kPa	973.4
999.9 kPa	973.3
1003.3 kPa	973.4
1007 kPa	973.4
1011.7 kPa	973.4
1016 kPa	973.4
1062.4 kPa	973.4
1065.9 kPa	973.3
1069.5 kPa	973.4
1073.9 kPa	973.3
1077.3 kPa	973.4
1082 kPa	973.5
1085.7 kPa	973.4
1090.4 kPa	973.5
1094.2 kPa	973.5
1099 kPa	973.5
1103 kPa	973.5
1128.6 kPa	973.4
1132.2 kPa	973.4
1137.1 kPa	973.4
1140.7 kPa	973.5
1145.6 kPa	973.5
1149.6 kPa	973.5
1154.3 kPa	973.5
1159 kPa	973.5
1163.8 kPa	973.5
1243.7 kPa	973.6
1248 kPa	973.6
1253.4 kPa	973.5
1258.3 kPa	973.4
1263.5 kPa	973.5
1269.2 kPa	973.5
1273.9 kPa	973.7
1278.6 kPa	973.5
1284.5 kPa	973.6
1289.2 kPa	973.6
1294.7 kPa	973.5
1299.6 kPa	973.6
1305.5 kPa	973.5
1310 kPa	973.5
1315.4 kPa	973.5
1319.9 kPa	973.5
1325.8 kPa	973.5
1331.7 kPa	973.6
1411.8 kPa	973.6
